Target: T1, ERα (Homo sapiens, UniProt P03372)
T1 construct: host or cells: MCF7
T1 sequence (P03372 1-595): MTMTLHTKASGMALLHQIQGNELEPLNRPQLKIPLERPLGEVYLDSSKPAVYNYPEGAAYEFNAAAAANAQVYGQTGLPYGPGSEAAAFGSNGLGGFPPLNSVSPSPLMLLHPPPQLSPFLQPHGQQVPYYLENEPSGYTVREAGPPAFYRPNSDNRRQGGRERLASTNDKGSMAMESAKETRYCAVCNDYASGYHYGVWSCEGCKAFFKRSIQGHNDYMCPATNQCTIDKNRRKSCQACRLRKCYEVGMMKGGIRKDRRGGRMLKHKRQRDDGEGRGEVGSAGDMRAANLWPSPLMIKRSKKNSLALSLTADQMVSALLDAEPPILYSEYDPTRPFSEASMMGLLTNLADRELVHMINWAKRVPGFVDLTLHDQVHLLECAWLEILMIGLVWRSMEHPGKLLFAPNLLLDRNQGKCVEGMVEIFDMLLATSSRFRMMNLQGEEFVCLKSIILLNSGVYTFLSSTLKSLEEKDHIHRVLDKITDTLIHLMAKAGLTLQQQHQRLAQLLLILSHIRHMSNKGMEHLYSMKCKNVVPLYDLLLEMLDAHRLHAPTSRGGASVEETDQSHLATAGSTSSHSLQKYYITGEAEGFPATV
Experiment: Estrogen receptor degradation activity: breast cancer cell ERα in cell western assay (MCF7 cells)
Assay type: cell-based
Settings: for % Degradation At 0.3 μM: 4 hours, relative to fulvestrant 0.1 μM positive control; for DC50: 4 hours post compound addition, concentration which degrades 50% of the estrogen receptor, read-out: Degradation IC50
Protocol: Test: Estrogen Receptor Degradation Activity Said test involves measuring the in vitro degradation activity of the compounds of the Table 1a. The measurements of the degradation activities were made using a breast cancer cell ERα in cell western assay as described hereunder. MCF7 cells (ATCC) were seeded in 384 wells microplate (collagen coated) at a concentration of 10000 cells/30 μL per well in red phenol free MEM alpha medium (invitrogen) containing 5% charcoal dextran striped FBS. The following day, 9 points serial 1:5 dilution of each compound was added to the cells in 2.5 μL at final concentrations ranging from […] (in table 2), or 0.1 μM for fulvestrant (using as positive control). At 4 hours post compound addition the cells were fixed by adding 25 μL of formalin (final concentration 5% formalin containing 0.1% triton) for 10 minutes at room temperature and then washed twice with PBS. Then, 50 μL of LI-COR blocking buffer containing 0.1% Triton was added to plate for 30 minutes at room temperature. LI-COR blocking buffer was removed and cells were incubated overnight at cold room with 50 μL anti-ER rabbit monoclonal antibody (Thermo scientific MA1-39540) diluted at 1:1000 in LI-COR blocking buffer containing 0.1% tween-20. Wells which were treated with blocking buffer but no antibody were used as background control. Wells were washed twice with PBS (0.1% tween-20) and incubated at 37° C. for 60 minutes in LI-COR (0.1% tween-20) containing goat anti-rabbit antibody Alexa 488 (1:1000) and Syto-64 a DNA dye (2 μM final concentration). Cells were then washed 3 times in PBS and scanned in ACUMEN explorer (TTP-Labtech). Integrated intensities in the green fluorescence and red fluorescence were measured to determine the levels of ERα and DNA respectively. The degradation activity with respect to estrogen receptors in this test is given by the concentration which degrades 50% of the estrogen receptor (or IC50) in nM. […] DMSO−fulvestrant)).

% Degradation At 0.3 μM | DC50 | Structure (SMILES)
90% | 0.5 nM | Cc1c(Cl)ccc(C2=C(c3ccc(C=C4CN(CCCF)C4)cc3)c3ccc(C(=O)O)cc3CCC2)c1C [Example 82, 8-(4-chloro-2,3-dimethylphenyl)-9-(4-((1-(3-fluoropropyl)azetidin-3-ylidene)methyl)phenyl)-6,7-dihydro-5H-benzo[7]annulene-3-carboxylic acid]
87% | 0.9 nM | Cc1c(C#N)cccc1C1=C(c2ccc(C=C3CN(CCCF)C3)cc2)c2ccc(C(=O)O)cc2CCC1 [Example 91, 8-(3-cyano-2-methylphenyl)-9-(4-((1-(3-fluoropropyl)azetidin-3-ylidene)methyl)phenyl)-6,7-dihydro-5H-benzo[7]annulene-3-carboxylic acid]
95% | 0.3 nM | O=C(O)c1ccc2c(c1)CCCC(CCc1ccccc1)=C2c1ccc(C=C2CN(CCCF)C2)cc1 [Example 168, 9-(4-((1-(3-fluoropropyl)azetidin-3-ylidene)methyl)phenyl)-8-phenethyl-6,7-dihydro-5H-benzo[7]annulene-3-carboxylic acid]
90% | 0.7 nM | Cc1c(C2=C(c3ccc(Cl)cc3Cl)CCCc3cc(C(=O)O)ccc32)ccc(C=C2CN(CCCF)C2)c1F [Example 63, 8-(2,4-dichlorophenyl)-9-(3-fluoro-4-((1-(3-fluoropropyl)azetidin-3-ylidene)methyl)-2-methylphenyl)-6,7-dihydro-5H-benzo[7]annulene-3-carboxylic acid]
92% | 3.7 nM | COc1ccc(C(F)(F)F)cc1C1=C(c2ccc(C=C3CN(CCCF)C3)cc2)c2ccc(C(=O)O)cc2CCC1 [Example 137]
93% | 0.2 nM | Cc1cc(F)ccc1C1=C(c2ccc(C=C3CN(CCCF)C3)c(F)c2F)c2ccc(C(=O)O)cc2CCC1 [Example 152, 9-(2,3-difluoro-4-((1-(3-fluoropropyl)azetidin-3-ylidene)methyl)phenyl)-8-(4-fluoro-2-methylphenyl)-6,7-dihydro-5H-benzo[7]annulene-3-carboxylic acid]
92% | 0.3 nM | O=C(O)c1ccc2c(c1)CCCC(c1c(F)cc(F)cc1F)=C2c1ccc(C=C2CN(CCCF)C2)cc1 [Example 33, 9-(4-((1-(3-fluoropropyl)azetidin-3-ylidene)methyl)phenyl)-8-(2,4,6-trifluorophenyl)-6,7-dihydro-5H-benzo[7]annulene-3-carboxylic acid]
97% | 0.3 nM | O=C(O)c1ccc2c(c1)CCCC(c1ccc(F)cc1F)=C2c1c(F)cc(C=C2CN(CCCF)C2)cc1F [Example 52, 9-(2,6-difluoro-4-((1-(3-fluoropropyl)azetidin-3-ylidene)methyl)phenyl)-8-(2,4-difluorophenyl)-6,7-dihydro-5H-benzo[7]annulene-3-carboxylic acid]
100% | 120 nM | Cl.O=C(O)c1ccc2c(c1)SCCC(c1ccc(Cl)cc1Cl)=C2c1ccc(C=C2CN(CCCF)C2)cc1 [Example 115, 4-(2,4-dichlorophenyl)-5-[4-[[1-(3-fluoropropyl)azetidin-3-ylidene]methyl]phenyl]-2,3-dihydro-1-benzothiepine-8-carboxylic acid; hydrochloride]
94% | 0.3 nM | O=C(O)c1ccc2c(c1)CCCC(c1ccc(F)cc1F)=C2c1ccc(C=C2CN(CCCF)C2)c(F)c1 [Example 53, 8-(2,4-difluorophenyl)-9-(3-fluoro-4-((1-(3-fluoropropyl)azetidin-3-ylidene)methyl)phenyl)-6,7-dihydro-5H-benzo[7]annulene-3-carboxylic acid]
95% | 0.2 nM | Cc1cccc(C)c1C1=C(c2ccc(C=C3CN(CCCF)C3)cc2)c2ccc(C(=O)O)cc2CCC1 [Example 97, 8-(2,6-dimethylphenyl)-9-(4-((1-(3-fluoropropyl)azetidin-3-ylidene)methyl)phenyl)-6,7-dihydro-5H-benzo[7]annulene-3-carboxylic acid]
94% | 0.7 nM | O=C(O)c1ccc2c(c1)CCCC(c1cc(F)cc(C(F)(F)F)c1Cl)=C2c1ccc(C=C2CN(CCCF)C2)cc1 [Example 123, 8-(2-chloro-5-fluoro-3-(trifluoromethyl)phenyl)-9-(4-((1-(3-fluoropropyl)azetidin-3-ylidene)methyl)phenyl)-6,7-dihydro-5H-benzo[7]annulene-3-carboxylic acid]
96% | 0.2 nM | Cc1cccc(C2=C(c3ccc(C=C4CN(CCCF)C4)cc3)c3ccc(C(=O)O)cc3CCC2)c1C [Example 94, 8-(2,3-dimethylphenyl)-9-(4-((1-(3-fluoropropyl)azetidin-3-ylidene)methyl)phenyl)-6,7-dihydro-5H-benzo[7]annulene-3-carboxylic acid]
91% | 1.4 nM | O=C(O)c1ccc2c(c1)CCCC(c1ccc(Cl)cc1Cl)=C2c1ccc(C=C2CN(CCC(F)(F)F)C2)cc1 [Example 109, 8-(2,4-dichlorophenyl)-9-(4-((1-(3,3,3-trifluoropropyl)azetidin-3-ylidene)methyl)phenyl)-6,7-dihydro-5H-benzo[7]annulene-3-carboxylic acid]
90% | 0.3 nM | O=C(O)c1ccc2c(c1)CCCC(c1cccc(C(F)(F)F)c1Cl)=C2c1ccc(C=C2CN(CCCF)C2)cc1 [Example 147, 8-(2-chloro-3-(trifluoromethyl)phenyl)-9-(4-((1-(3-fluoropropyl)azetidin-3-ylidene)methyl)phenyl)-6,7-dihydro-5H-benzo[7]annulene-3-carboxylic acid]
85% | 4.3 nM | Cc1cc(C2=C(c3ccc(C=C4CN(CCCF)C4)cc3)c3ccc(C(=O)O)cc3CCC2)cc(C(F)(F)F)c1 [Example 145, 9-(4-((1-(3-fluoropropyl)azetidin-3-ylidene)methyl)phenyl)-8-(3-methyl-5-(trifluoromethyl)phenyl)-6,7-dihydro-5H-benzo[7]annulene-3-carboxylic acid]
98% | 0.6 nM | Cl.O=C(O)c1ccc2c(c1)CCCC(c1ccc(Cl)cc1Cl)=C2c1ccc(C=C2CN(CCCF)C2)c(F)c1F [Example 80, 8-(2,4-dichlorophenyl)-9-(2,3-difluoro-4-((1-(3-fluoropropyl)azetidin-3-ylidene)methyl)phenyl)-6,7-dihydro-5H-benzo[7]annulene-3-carboxylic acid hydrochloride]
89% | 0.4 nM | CC1(C)CCCC(C2=C(c3ccc(C=C4CN(CCCF)C4)cc3)c3ccc(C(=O)O)cc3CCC2)C1 (single isomer, unassigned) [Example 172, 8-(3,3-dimethylcyclohexyl)-9-(4-((1-(3-fluoropropyl)azetidin-3-ylidene)methyl)phenyl)-6,7-dihydro-5H-benzo[7]annulene-3-carboxylic acid]
92% | 2.1 nM | Cc1cc(C#N)ccc1C1=C(c2ccc(C=C3CN(CCCF)C3)cc2)c2ccc(C(=O)O)cc2CCC1 [Example 84, 8-(4-cyano-2-methylphenyl)-9-(4-((1-(3-fluoropropyl)azetidin-3-ylidene)methyl)phenyl)-6,7-dihydro-5H-benzo[7]annulene-3-carboxylic acid]
91% | 1.8 nM | Cc1cc(F)ccc1C1=C(c2ccc(C=C3CN(CCCF)C3)c(F)c2C)c2ccc(C(=O)O)cc2CCC1 [Example 30, 8-(4-fluoro-2-methylphenyl)-9-(3-fluoro-4-((1-(3-fluoropropyl)azetidin-3-ylidene)methyl)-2-methylphenyl)-6,7-dihydro-5H-benzo[7]annulene-3-carboxylic acid]
